From patent US11241011B2, “Microbiocidal quinoline (thio)carboxamide derivatives” (SYNGENTA PARTICIPATIONS AG, priority 2017, dated 2022)

Key:
Gaeumannomyces graminis = Gaeumannomyces graminis / liquid culture (take-all of cereals); format: cell-based; details: 20 ppm, growth inhibition photometrically 4-5 days after application, vs untreated control
Procedure: Gaeumannomyces Graminis/Liquid Culture (Take-All of Cereals)
Mycelial fragments of the fungus from cryogenic storage were directly mixed into nutrient broth (PDB potato dextrose broth). After placing a (DMSO) solution of test compound into a microtiter plate (96-well format), the nutrient broth containing the fungal spores iss added. The test plates are incubated at 24° C. and the inhibition of growth is determined photometrically 4-5 days after application.

melting point [°C] | SMILES | control of Gaeumannomyces graminis (Gaeumannomyces graminis)
182 to 184 | O=C(Nc1cnc2c(F)cccc2c1)C(CC#CC1CC1)CC(F)(F)F (stereo not shown) [Compound E-2, 5-cyclopropyl-N-(8-fluoro-3-quinolyl)-2-(2,2,2-trifluoroethyl)pent-4-ynamide] | –
125 to 127 | C#CCC(C)(CC(C)C)C(=O)Nc1cnc2c(F)cccc2c1 (stereo not shown) [Compound E-3, N-(8-fluoro-3-quinolyl)-2-isobutyl-2-methyl-pent-4-ynamide] | –

SMILES | melting point [°C] | control of Gaeumannomyces graminis (Gaeumannomyces graminis)
CC#CCC(C)(CC(C)C)C(=O)Nc1cnc2c(F)cccc2c1 (stereo not shown) [Compound E-5, N-(8-fluoro-3-quinolyl)-2-isobutyl-2-methyl-hex-4-ynamide] | 139 to 140 | at least 80%
